Experiments:
Format in all cases: in vivo, human
[1] = test system: patients with nonobstructive hypertrophic cardiomyopathy (nHCM); experiment: FOREST-HCM open-label extension, 36-week analysis in nHCM
Excerpt: An open-label extension clinical trial of aficamten in patients with symptomatic oHCM was initiated and was described as Example 3b in WO 2024/031016 and in U.S. Patent Publication US-2024-0115554-A1, the disclosures of which are incorporated by reference herein. The treatment duration is anticipated to be multiple years. The primary objective of the trial is to determine the safety and tolerability of aficamten over a 5-year period. Safety and efficacy of aficamten in patients with nonobstructive hypertrophic cardiomyopathy (nHCM). Thirty-four patients were enrolled (mean age±SD 57.2±15.3 years, 62% women). At baseline, patients were symptomatic (41% NYHA class III) with median (IQR) NT-proBNP and hs-cTnI of […] (735, 1735) and 24.9 ng/L (9.7, 46.4), respectively. By the end of the titration period (week 6), 3 (8.8%), 3 (8.8%), 6 (17.6%) and 22 (64.7%) patients received doses of 5, 10, 15, and 20 mg daily, respectively. At baseline, LVEF (mean±SD) was 70%±6.1; over 36-weeks, there was a modest reduction of 4.3%±5.2 (p<0.0001). NYHA class improved by ≥1 class in 27 (79.4%) patients, including 20 (58.8%) were asymptomatic (NYHA class I) by week 36. The mean KCCQ-CSS improved by 13.8±12.52 points relative to baseline, with 24/31 (77.4%) patients reporting improvements of ≥5 points. […] Most patients achieved the highest available dose while maintaining normal LVEF.

[2] = test system: patients with symptomatic oHCM; experiment: SEQUOIA-HCM: EQ-5D-5L index and Visual Analogue Scale quality of life
Excerpt: A further exploratory objective of this trial was to evaluate the effect of aficamten on health status and health-related quality of life as measured by PRO questionnaire, as determine by changes from baseline to Week 24 in individual responses to the EuroQol 5-dimension 5-level instrument (EQ-5D-5L). Improved exercise capacity, disease-specific quality-of-life (QoL), and hemodynamics in patients with obstructive hypertrophic cardiomyopathy (oHCM). Participants underwent blinded dose escalation over 6 weeks and were treated for 24 weeks followed by 4-week washout. EQ-5D-5L index (ranges from 0 to 1) and the Visual Analogue Scale (VAS; from 0 to 100) was measured at baseline and weeks 0, 2, 4, 8, 12, 16, 20, 24, with higher scores indicating better QoL. Aficamten treatment effect on EQ-5D-5L was estimated using linear regression (specific study visits) and mixed effects regression (overall treatment effect) using all follow-up data through week 24, with model adjustments for baseline EQ-5D-5L score and randomization stratification variables.

[3] = test system: patients with symptomatic oHCM; experiment: SEQUOIA-HCM: analysis by baseline Valsalva LVOT-G severity (severe <100 mmHg vs very severe ≥100 mmHg); conditions: for Change in KCCQ CSS, Mean (SD) Change from Baseline / LVOT-G - Rest, Mean (SD) Change from Baseline / LVOT-G - Valsalva, Mean (SD) Change from Baseline / Peak VO2, Mean (SD) Change from Baseline / Change in KCCQ CSS, Adjusted diff / LVOT-G - Rest, Adjusted diff / LVOT-G - Valsalva, Adjusted diff / NT-proBNP, Adjusted diff / Peak VO2, Adjusted diff / Proportional LVOT-G - Rest, Adjusted diff / Proportional LVOT-G - Valsalva, Adjusted diff / hs-cTpI, Adjusted diff: Baseline to Week 24; for Change in KCCQ CSS, Adjusted diff / LVOT-G - Rest, Adjusted diff / LVOT-G - Valsalva, Adjusted diff / NT-proBNP, Adjusted diff / Peak VO2, Adjusted diff / Proportional LVOT-G - Rest, Adjusted diff / Proportional LVOT-G - Valsalva, Adjusted diff / hs-cTpI, Adjusted diff / NYHA FC improvement, Rate difference / Proportion of patients with rest LVOT-G <30 mmHg & Valsalva LVOT-G <50 mmHg, Adjusted diff: vs placebo; for NYHA FC improvement, % of patients / Proportion of patients with rest LVOT-G <30 mmHg & Valsalva LVOT-G <50 mmHg / NYHA FC improvement, Rate difference / Proportion of patients with rest LVOT-G <30 mmHg & Valsalva LVOT-G <50 mmHg, Adjusted diff: Week 24; for proportional reduction from baseline in Valsalva (provoked) LVOT-G / proportional reduction from baseline in resting LVOT-G: week 24
Excerpt: Patients with Hypertrophic Obstructive Cardiomyopathy and Very Severe Left Ventricular Outflow Tract Obstruction. Patients enrolled in SEQUOIA-HCM (the study of Example 8), the pivotal phase 3 controlled trial of aficamten in adults with symptomatic oHCM, were grouped according to baseline Valsalva LVOT-G (severe obstruction [<100 mmHg] versus very severe obstruction [≥100 mmHg]). The prespecified primary endpoint was the proportional change from baseline to Week 24 in rest and Valsalva LVOT-G in severe versus very severe obstruction groups. Secondary endpoints included change in symptoms, cardiac biomarkers, and exercise capacity by group (Table 14). Of the 282 patients randomized, 209 patients had severe obstruction, and 73 had very severe obstruction. Compared to baseline, there was a profound reduction in resting and provoked obstruction in both groups. By week 24, the proportional reductions (95% CI) from baseline in the severely obstructed cohort were 69% (74 to 63) and 64% (69 to 56), and 73% (81 to 63) and 71% (79 to 61) in the very severe obstruction cohort, but there was no between-group difference (p>0.05). […] The post-titration doses by group were similar, with 81% and 88% in each cohort receiving the 15 mg and 20 mg dose strengths (p=0.21). There were no instances of per protocol down-titration in the very severe obstruction group, and treatment emergent adverse events (TEAE's) were balanced between groups (any TEAE 77 [71%] in severe versus 28 [85%] in very severe obstruction; p=0.60).

[4] = overall treatment effect through week 24
[5] = Baseline Valsalva LVOT-G <100 mmHg
[6] = Baseline Valsalva LVOT-G <100 mmHg, N = 109
[7] = Baseline Valsalva LVOT-G ≥100mmHg
[8] = Baseline Valsalva LVOT-G ≥100mmHg, N=33
[9] = severe obstruction (baseline Valsalva LVOT-G <100 mmHg)
[10] = very severe obstruction (≥100 mmHg)

For CCc1nc(-c2ccc3c(c2)CC[C@H]3NC(=O)c2cnn(C)c2)no1 [aficamten, (R)—N-(5-(5-ethyl-1,2,4-oxadiazol-3-yl)-2,3-dihydro-1H-inden-1-yl)-1-methyl-1H-pyrazole-4-carboxamide], the “patients reporting KCCQ-CSS improvements of ≥5 points” value ([1]; 24/31 patients) was 77.4%, the “patients asymptomatic (NYHA class I)” value ([1]; by week 36) was 58.8% and the “drug discontinuations due to adverse events” value ([1]; in vivo) was “no drug discontinuations due to adverse events”. The “patients with LVEF<50%” value ([1]; in vivo) was 5.9%, the “reduction in LVEF (mean±SD)” value ([1]; over 36-weeks) was 4.3% and the tolerability ([1]; over the study period) was “well tolerated”. The “NT-proBNP median change from baseline” value ([1]; week 36) was -665.5 pg/mL, the “hs-cTnI median change from baseline” value ([1]; week 36) was -2.7 ng/L and the “mean KCCQ-CSS improvement relative to baseline” value ([1]; week 36) was 13.8±12.52 points. The “patients with NYHA class improved by ≥1 class” value ([1]; week 36) was 79.4%, the “QoL after treatment withdrawal at 24 weeks compared with placebo” value ([2]; Index and VAS) was “worsened” and the “improvement of EQ-5D-5L VAS versus placebo” value [2, 4] was 2.8 points. The “improvement of EQ-5D-5L index versus placebo” value [2, 4] was 0.026, the “Change in KCCQ CSS, Mean (SD) Change from Baseline” value [3, 5] was 12 and the “LVOT-G - Rest, Mean (SD) Change from Baseline” value [3, 5] was −28 ± 25 mmHg. The “LVOT-G - Valsalva, Mean (SD) Change from Baseline” value [3, 5] was −38 ± 31 mmHg, the “Peak VO2, Mean (SD) Change from Baseline” value [3, 5] was 1.8 ± 3.2 mL/min/kg and the “Change in KCCQ CSS, Adjusted diff” value [3, 5] was “+8”. The “LVOT-G - Rest, Adjusted diff” value [3, 5] was −35 mmHg, the “LVOT-G - Valsalva, Adjusted diff” value [3, 5] was −43 mmHg and the “NT-proBNP, Adjusted diff” value [3, 5] was −79%. The “Peak VO2, Adjusted diff” value [3, 5] was “+1.6 mL/kg/min”, the “Proportional LVOT-G - Rest, Adjusted diff” value [3, 5] was −69% and the “Proportional LVOT-G - Valsalva, Adjusted diff” value [3, 5] was −64%. The “hs-cTpI, Adjusted diff” value [3, 5] was −45%, the “NYHA FC improvement, % of patients” value [3, 6] was “(62%)” and the “Proportion of patients with rest LVOT-G <30 mmHg & Valsalva LVOT-G <50 mmHg” value [3, 6] was “(73%)”. For the same compound, the “NYHA FC improvement, Rate difference” value [3, 5] was “+38.2%”, the “Proportion of patients with rest LVOT-G <30 mmHg & Valsalva LVOT-G <50 mmHg, Adjusted diff” value [3, 5] was “+63.7%” and the “Change in KCCQ CSS, Mean (SD) Change from Baseline” value [3, 7] was 9. The “LVOT-G - Rest, Mean (SD) Change from Baseline” value [3, 7] was −60 ± 29 mmHg, the “LVOT-G - Valsalva, Mean (SD) Change from Baseline” value [3, 7] was −82 ± 38 mmHg and the “Peak VO2, Mean (SD) Change from Baseline” value [3, 7] was 1.6 ± 2.8 mL/min/kg. For the same compound, the “Change in KCCQ CSS, Adjusted diff” value [3, 7] was “+4”, the “LVOT-G - Rest, Adjusted diff” value [3, 7] was −52 mmHg and the “LVOT-G - Valsalva, Adjusted diff” value [3, 7] was −68 mmHg. The “NT-proBNP, Adjusted diff” value [3, 7] was −85%, the “Peak VO2, Adjusted diff” value [3, 7] was “+1.8 mL/kg/min” and the “Proportional LVOT-G - Rest, Adjusted diff” value [3, 7] was −73%. The “Proportional LVOT-G - Valsalva, Adjusted diff” value [3, 7] was −71%, the “hs-cTpI, Adjusted diff” value [3, 7] was −34% and the “NYHA FC improvement, % of patients” value [3, 8] was “(49%)”. For the same compound, the “Proportion of patients with rest LVOT-G <30 mmHg & Valsalva LVOT-G <50 mmHg” value [3, 8] was “(52%)”, the “NYHA FC improvement, Rate difference” value [3, 7] was “+22.4%” and the “Proportion of patients with rest LVOT-G <30 mmHg & Valsalva LVOT-G <50 mmHg, Adjusted diff” value [3, 7] was “+51.2%”. The “proportional reduction from baseline in Valsalva (provoked) LVOT-G” value [3, 9] was 64%, the “proportional reduction from baseline in resting LVOT-G” value [3, 9] was 69% and the “proportional reduction from baseline in Valsalva (provoked) LVOT-G” value [3, 10] was 71%. The “proportional reduction from baseline in resting LVOT-G” value [3, 10] was 73%.

Source: patent publication US20250295639A1, “METHODS FOR TREATING HEART DISEASES” (Cytokinetics, Incorporated, priority 2024, published 2025)
